Laboratory results: patent US20110289824A1, “COMPOUNDS, METHODS, AND DEVICES FOR DETECTING AND/OR TREATING INSECT INFESTATION” (priority 2010, published 2011)

How the values were obtained:
[1] = tested on: Cimex lectularius (adults); test: Device choice test in arenas: treated device vs untreated control at 0.1 mg and 0.5 mg (Tables 4 and 5); type: in vivo; conditions: 20 bugs per arena, against UTC device
Procedure: In this example, 20 Cimex lectularius (adults) were placed in plastic boxes (20×20 cm). The bottom of each box was covered with paper. A piece of folded filter paper served as a shelter for the Cimex lectularius bed bugs. The bed bugs were fed two days before they were put into the test-arenas. As set forth in Table 4, the ability of 2-Heptanone and 2-Heptanone-oxime to attract bed bugs at a concentration of 0.1 mg and 0.5 mg was evaluated. Device (A) includes 2-Heptanone, 2-Heptanone oxime, or both 2-Heptanone and 2-Heptanone oxime. Device (B) served as an untreated control. [table] […] The total number of bugs per arena was 20.

[2] = tested on: Cimex lectularius (adults); test: Device choice test in arenas: compound device vs mixture device vs untreated control (Tables 2 and 3); type: in vivo; conditions: 1.0 mg of each compound per device (Device A), 20 bugs per arena, against mixture device and UTC
Procedure: The attraction, arresting, or aggregation of bed bugs from the species Cimex lectularius to cholesterol, 2-Heptanone, and 2-Heptanone oxime was evaluated in Tables 2 and 3 by the following methodology. In this example, 20 Cimex lectularius (adults) were placed in plastic boxes (20×20 cm). The bottom of each box was covered with paper. A piece of folded filter paper served as a shelter for the Cimex lectularius bed bugs. The bed bugs were fed two days before they were put into the test-arenas. As set forth in Table 2, three types of devices were compared: Device (A): a device containing cholesterol (Box 1), a device containing 2-Heptanone (Box 2), a device containing 2-Heptanone-oxime (Box 3), and a device containing 2-Heptanone and 2-Heptanone-oxime (Box 4); Device (B): a device containing a mixture of cholesterol, 2-Heptanone, and 2-Heptanone-oxime (Box 1-4); and Device (C) a device without an attractant, arresting, or aggregating compound, serving as a control (“UTC”). The concentrations of the compounds tested are as follows: Cholesterol—1% in ethanol, 0.1 ml per detection device (1 mg a.i.); 2-Heptanone—1% in ethanol, 0.1 ml per detection device (1 mg a.i.); and 2-Heptanone oxime—1% in ethanol, 0.1 ml per detection device (1 mg a.i.). [table] The number of bed bugs in the different devices and on the bottom of the arenas were counted at day 1, day 4, and day 7 after the start of the trial. The total number of bugs per arena was 20. The relative effectiveness of cholesterol, 2-Heptanone, and 2-Heptanone-oxime in attracting, arresting, or aggregating bed bugs was evaluated in Table 3.

Structure (SMILES)	Number of bed bugs in the device (Compounds + concentrations) ([1]; 0.1 mg per device, day 1)	Number of bed bugs in the device (Compounds + concentrations) ([1]; 0.1 mg per device, day 3)	Number of bed bugs in the device (Compounds + concentrations) ([1]; 0.1 mg per device, day 6)	Number of bed bugs in the device (Compounds + concentrations) ([1]; 0.5 mg per device, day 1)	Number of bed bugs in the device (Compounds + concentrations) ([1]; 0.5 mg per device, day 3)	Number of bed bugs in the device (Compounds + concentrations) ([1]; 0.5 mg per device, day 6)	Number of bed bugs in the device (Compounds) ([2]; day 1)	Number of bed bugs in the device (Compounds) ([2]; day 4)	Number of bed bugs in the device (Compounds) ([2]; day 7)
CCCCCC(C)=NO [2-Heptanone-oxime, 2-Heptanone oxime]	12	14	15	8	11	12	13	13	13
CCCCCC(C)=O [2-Heptanone]	0	0	1	0	0	1	2	2	2
CC(C)CCC[C@@H](C)[C@H]1CC[C@H]2[C@@H]3CC=C4C[C@@H](O)CC[C@]4(C)[C@H]3CC[C@]12C [Cholesterol, cholesterol]							1	1	1
